Assay: gradient 5% acetonitrile 3 min, to 50% in 2 min, to 85% in 15 min, held 3 min, 100 µL/min
Conditions: column: Zorbax Extend-C18 2.1 x 50 mm; eluents: water / acetonitrile, 0.1% formic acid
Summary of the method: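 A Zorbax Extend-C18 column (2.1 × 50 mm, 1.8 μm) run at 100 μL/min with water and acetonitrile, both containing 0.1% formic acid, separated mixtures of ~100 pure standards. The HPLC was coupled to a quadrupole time-of-flight mass spectrometer operated in positive and negative ionization mode, with dead and dwell volumes of 40 μL and 900 μL. Each retention time was taken from a computationally picked adduct peak that was then manually inspected.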

RP-LC retention time [s]	Structure (SMILES)
556	Cc1cc(N2CCN(C)CC2)nc2ccc(NC(=O)NCc3ccc(F)cc3)cc12
588	Cc1nn(C)c(C)c1S(=O)(=O)N1CCC(n2c(C)cnc2-c2ccncc2)C1 (stereo not given)
600	CCN1CCN(CCNC(=O)c2cccn2-c2nnc(N3CCCCCC3)s2)CC1
780	CCOc1ccc2nc(NC(=O)C3CCN(c4ccc(-n5cccn5)nn4)CC3)sc2c1
767	CN1c2cc(C(=O)NC3CCCC3)ccc2C(=O)N2CCCCC21 (stereo not given)
1150	CCCNC(=O)N(C1CCOCC1)C1CCN(C(=O)c2nn(C)c3ccccc23)CC1
946	Cc1cc(C(=O)Nc2ccc(Cl)cc2)n(CC(=O)Nc2ccc(F)cc2)n1
874	COC(=O)c1cccc(NC(=O)c2cnc3c(c2)c(=O)n(C)c(=O)n3-c2ccccc2)c1
856	CC1CCCN(Cc2nc(-c3ccc(N4CCSCC4)nc3)no2)C1 (stereo not given)
717	COC(=O)c1cnc2nc(C)ccc2c1Nc1ccc(F)c(Cl)c1
794	COc1ccc(C2CNC(=O)C2)cc1OC1CCCC1 (stereo not given)
802	CCOc1cc(=O)n2c(c1C(=O)Nc1cccc(Br)c1)CCCC2
979	COc1ccc(Cl)cc1NC(=O)N(C)CCc1noc(COc2ccccc2F)n1
950	CC1(C(=O)NC2CCCC2)CN(S(=O)(=O)c2ccccc2)CC(=O)N1c1ccc(Cl)cc1 (stereo not given)
758	CC(C)CC(=O)N1CCC(COc2ccc(C(=O)NC3CC3)cc2)CC1
1090	O=C(Nc1ccc(OC(F)(F)F)cc1)C1CCCN(c2ccc(=O)n(-c3cccc(Cl)c3)n2)C1 (stereo not given)
661	O=C(Nc1ccc(-c2nnc3n2CCCC3)cc1)c1ccc2c(c1)OCO2
763	O=C(NCc1ccco1)c1ccc(NC(=O)C2CCC2)cc1N1CCCCC1
747	O=C(NCc1ccc(F)cc1)N1CC(F)(F)C[C@H]1c1nnc(-c2cnccn2)o1
908	CC(C)c1nc2c(NC(=O)c3ccc(Br)o3)cccn2n1
608	O=C(Nc1c(F)cccc1F)N1CCc2[nH]cnc2C1c1ccccc1 (stereo not given)
656	CCCCN(CCNC(=O)C1CCCN(c2ncnc3c2nc2n3CCCCC2)C1)Cc1ccco1 (stereo not given)
692	CC(C)C(=O)N1CCC(Cc2noc(C3CC3)n2)C1 (stereo not given)
1060	O=C(Nc1nc(-c2cccc([N+](=O)[O-])c2)cs1)c1ccc(Cl)cc1Cl
840	Cc1cc(-c2nnc(C3CC3)o2)c(C)n1CC(=O)NCc1ccc(F)cc1Cl
706	Cc1noc(C)c1CNC(=O)c1cc(-c2ccccc2)n[nH]1
752	CCc1noc(-c2ccc(-n3ncc(C(=O)N4CCOCC4)c3C)nc2)n1
673	CCc1nc2cc(N3CCCC(C(=O)NCc4ccco4)C3)cnc2nc1CC (stereo not given)

Further lines, the molecule ahead of its results:

Structure (SMILES)	RP-LC retention time [s]
Cc1cc(-c2c(C)sc(C)c2S(=O)(=O)NC2CCC(C)CC2)n[nH]1 (stereo not given)	1140
COc1ccc(OCc2nnc3sc(-c4cc5ccccc5o4)nn23)cc1	984
CN(C)c1ccc(/C=C(\C#N)C(=O)c2ccccc2)cc1	1100
COc1ccc(-c2nc(-c3ccc4ncn(C(C)C)c4c3)no2)cc1OC	727
Cc1cc(C(=O)N(CC2CCCO2)c2nc3c(F)cc(F)cc3s2)on1 (stereo not given)	1080
CC1CCc2c(C(=O)NCCc3ccccc3)csc2C1 (stereo not given)	1080
O=c1ccn(-c2ccc(Cl)cc2)nc1-c1nc(-c2cccc(Br)c2)no1	1080
O=C(CCNc1cnc2cnccn12)NCCC1=CCCCC1	626
COCCN1C(=O)[C@H]2CN(Cc3cccnc3)C[C@H]2C1=O	528
COc1ccc(-c2c(C)noc2NC(C)=O)cc1S(=O)(=O)Nc1ccc(Cl)cc1F	807
Cc1nncn1C1CCN(S(=O)(=O)c2ccccc2F)CC1	654
COCc1c(C(=O)O)nnn1-c1cccc(OC)c1	668
CCn1cc(-c2nc(C(=O)Nc3cc(F)cc(F)c3)cs2)c2cccnc21	1180
COc1ccc(S(=O)(=O)N2CCC(C(=O)NCCc3csc(-c4ccccc4)n3)CC2)cc1	912
CCN(CC)C(=O)NCCc1noc(COC)n1	626
CN1C(=O)C2(CCN(C(=O)c3ccnn3C)CC2)c2ccccc21	699
CC(C)N1C(=O)c2cccnc2Sc2cc(NC(=O)c3ccncc3)ccc21	662
Fc1ccc(Cc2nc(-c3cccc(-c4ccn[nH]4)c3)no2)cc1	925
CCc1nn(C)c(=O)c2cc(S(=O)(=O)NCc3ccc(Cl)cc3)cn12	911
CC(C)NC(=O)N1CCCN(S(=O)(=O)C(C)C)CC1	649
CCC(C)NC(=O)c1c2c(cn(-c3ccc(F)cc3)c1=O)C(=O)CC(C)(C)C2 (stereo not given)	920

Structure (SMILES)	RP-LC retention time [s]
O=C(c1cccs1)N1CCN(c2nnc3ccc(Cl)cn23)CC1	691
O=C(NCC(F)(F)F)C1CCN(C(=O)c2c(F)cccc2Cl)CC1	686
Cc1cc(N(C)C)nc(N2CCN(S(=O)(=O)c3ccc(Br)cc3)CC2)n1	733
CCC1Oc2ccc(S(=O)(=O)N3CCC(C(=O)Nc4ccccc4)CC3)cc2NC1=O (stereo not given)	794
CCOc1ccc(CN2CC(N(Cc3ccncc3)S(C)(=O)=O)C2)cc1	560
Cc1ccsc1C(=O)N1CCC2(CC1)NCc1ccccc1-n1ccnc12	588
Cc1ccc(CNC(=O)Cc2csc3nc(-c4ccc(C)c(C)c4)cn23)cc1	896
COc1cc(C=CC(=O)CC(=O)C=Cc2ccc(O)c(OC)c2)ccc1O	891
Nc1nc(N2CCN(C3CCCCC3)CC2)ncc1C(=O)NCc1ccccc1	627
Cc1nc(N2CCN(CCO)CC2)nc2c1C(=O)CC(c1cccc(Cl)c1)C2 (stereo not given)	693
COc1ccc(CNC(=O)CSc2cc(N3CCN(c4ccccc4OC)CC3)ncn2)cc1	1090
Clc1ccc(C2(c3ccc(-c4cn[nH]c4)cc3)CCNCC2)cc1	680
COCCC(=O)N1CCCN(C2=NS(=O)(=O)C(c3ccc(C(C)C)cc3)=C2C)CC1	817
CN(CCc1ccccn1)C(=O)C1CCN(c2cnn(C)c(=O)c2)CC1	553
O=C(Cc1ccc(Cl)cc1)N1CCN(c2nnc3ccccn23)CC1	663
CCCc1noc(-c2ccnc(-n3cnc(C(=O)NC4CCCCCC4)c3)c2)n1	1060
Cc1ccc(C(C)NC(=O)C2CCN(c3ccc4nncn4n3)CC2)cc1 (stereo not given)	736
COC(=O)c1ncn2c1C(=O)N(c1ccc(F)cc1)C(C)(C(=O)NCc1ccc(C)cc1)C2 (stereo not given)	732
CC(C)Cn1c(=O)c(N2CCN(C(=O)c3ccccc3Cl)CC2)nc2ccncc21	682
COc1ccc2c(c1)C13CCN(C)C(C2)C1CCC1(C3)OCCO1 (stereo not given)	645
O=C(Cn1c(=O)n(C2CC2)c(=O)c2nscc21)N1CCN(c2ccccc2F)CC1	713

Structure (SMILES)	RP-LC retention time [s]
Cc1cccc(CNC(=O)CCC2CCN(c3cc(NC4CC4)ncn3)CC2)c1	672
COc1ccc(-c2cc3nn(CC(=O)N4CCOCC4)c(=O)n3c(C)n2)cc1	717
CCCOC(=O)C1=C(C)NC2=C(C(=O)C(C(=O)OC)C(C)C2)C1c1ccc(OC)cc1 (stereo not given)	907
CCOC(=O)C1CCN(c2ncc(S(=O)(=O)c3ccc(Cl)cc3)c(N)n2)CC1	1030
CC(C)Oc1ccccc1Cn1c(=O)oc2ccccc21	1010
CCc1ccc(-c2noc(CN3C(=O)COc4cc(Cl)ccc43)n2)cc1	1240
O=C(NCc1csc(-c2ccccc2)n1)C1CCN(S(=O)(=O)c2ccc(Cl)cc2)CC1	976
CC(=O)c1cccc(S(=O)(=O)NCC2CCN(C(=O)c3cc4ccccc4o3)CC2)c1	781
O=C(NCCCN1CCc2ccccc2C1)C1CCCN(c2nnc(-n3cccc3)s2)C1 (stereo not given)	593
Cc1noc(-c2cccc(OC3CN(C(=O)c4ccoc4)C3)c2)n1	787
Cc1cc(C)n(CCNC(=O)c2ccc(N3CCOCC3)nn2)n1	572
CN[C@H](CNC(=O)N1CCC[C@@H]([C@@H](OCCNC(=O)OC)c2cccc(Cl)c2)C1)C[C@H]1CCCOC1	780
Cn1nnc2cc(CNC(=O)c3ccccn3)ccc21	651
CCc1ccccc1NC(=O)c1cc(CC)n2nccc2n1	1150
Cc1nc(-c2noc(-c3ccccc3)n2)cn1CC(=O)Nc1cccc(Cl)c1	916
CCOC(=O)C1=C(C)NC2=C(C(=O)c3ccccc32)C1c1cccc(OC)c1 (stereo not given)	988
COCCC1(NC(=O)C2CC2)CCN(S(=O)(=O)c2c(C)noc2C)CC1	740
COc1cc(F)c(F)c(Nc2ccc(I)cc2F)c1NS(=O)(=O)C1(C[C@H](O)CO)CC1	1050
CCN1C(=O)c2cc(C(=O)NCc3ccccc3C)nn2CC1(C)C(=O)NC1CCCC1 (stereo not given)	884
Cc1nn(CCC(=O)Nc2ccccc2Cl)c(=O)c2nn(-c3ccccc3)c(C)c12	827
